The values below come from patent US12083089B2, “Compositions and methods for stimulating ventilatory and/or respiratory drive” (CASE WESTERN RESERVE UNIVERSITY, priority 2015, dated 2024).

Each structure is given as a SMILES string.

Assay type in all cases: in vivo, rat
Experiment [1] relates to freely moving rats. Put plainly: Tail-flick latency (TFL) test. The note with it: for Tail-Flick latency: vehicle-pretreated rats, morphine 10 mg/kg IV.
Experiment [2] concerns adult male rats. Put plainly: Hargreaves Hind-paw Latency Test, morphine 1 mg/kg. The note with it: given alone, morphine sulfate 1 mg/kg IV.
The subject of experiment [3] is freely moving rats. Put plainly: Arterial blood-gas chemistry and A-a gradient in morphine-treated rats. The note with it: freely moving rats, morphine 10 mg/kg IV, then drug 500 μmol/kg IV 15 min later.
Experiment [4] relates to adult male rats. Put plainly: Von Frey Test, morphine 1 mg/kg. The note with it: given alone, morphine 1 mg/kg IV.

Consider `CN1CC[C@]23c4c5ccc(O)c4O[C@H]2[C@@H](O)C=C[C@H]3[C@H]1C5` [Morphine, morphine], for which the “duration of the increase in TFL” value in experiment [1] (morphine 10 mg/kg IV in vehicle-treated rats) is on record as “at least 4 h”. Further, the “Tail-Flick latency” value in experiment [1] (post-morphine - 30 min) amounted to 12 ± 0.0 s; in experiment [1] (post-morphine - 60 min) it was 12 ± 0.0 s; in experiment [1] (post-morphine - 90 min), 11.7 ± 0.2 s; in experiment [1] (post-morphine - 120 min) it was 11.1 ± 0.2 s; in experiment [1] (post-morphine - 180 min), 8.3 ± 0.3 s; in experiment [1] (post-morphine - 210 min) it was 5.6 ± 0.3 s. The entries for the “Tail-Flick latency” value in experiment [1] (post-morphine - 240 min) and in experiment [1] (post-morphine - 360 min) were 4.3 ± 0.3 s and 3.3 ± 0.3 s, respectively. Besides, the “Hargreaves hind-paw withdrawal latency” value in experiment [2] (D-cystine diME 500 μmol/kg IV, FIG. 26 study) turned out to be 16.3 ± 1.8 s; in experiment [2] (L-cystine diME 500 μmol/kg IV, FIG. 24 study) it was 19.5 ± 0.4 s. For the same compound, the “changes in ABG chemistry (pH, pCO2, pO2 and sO2)” value in experiment [3] (FIG. 18) was “substantial falls in pH, pO2 and sO2 accompanied by substantial increases in pCO2”. Further, the “changes in A-a gradient” value in experiment [3] (FIG. 19) is “substantial and equivalent increases”. For the same compound, the “force needed to initiate hind-paw withdrawal (Von Frey)” value was 177±8 grams in experiment [4] (D-cystine diME 500 μmol/kg IV, FIG. 27 study) and 88.3 ± 7.0 g in experiment [4] (L-cystine diME 500 μmol/kg IV, FIG. 25 study).
